In assay [1] the test system is dexamethasone-induced muscular atrophy animal model. Put plainly: Dexamethasone-induced muscular atrophy animal model (Experimental Example 1). The format is in vivo, ICR mice. As to conditions: compared to dexamethasone-treated group (excipient). From the text:
1-1. Preparation of experimental animals and samples For an experimental group in the present invention, oxiracetam
having a structure of Formula 1 was purchased from Tokyo Chemical Industry (Japan; Product No. 00398, CAS RN:62613-82-5, purity: 96%) and used. As experimental animals, 7-week-old male ICR mice were
purchased and used. Until the day of the experiment, general feed (EEGJ30060: Cargill Agri Purina, Seongnam, Korea) and water were sufficiently supplied to the experimental animals, and the animals were acclimated for 1 week under an environment of a temperature of 23±2° C., a humidity of 55±10%, and a light-dark cycle of 12 hours-12 hours and used in the experiment.
After the acclimation period for the experimental animals, to create a muscular atrophy model, the mice were randomly divided into groups of 10 animals, such as a normal group (n=10), a dexamethasone-treated group (n=10), and an oxiracetam-administered group (n=10). The groups except for the normal group were intraperitoneally injected with dexamethasone at a dose of 10 mg/kg from day 7 to day 21 for 14 days. In the case of the oxiracetam-administered group, 7 days before the intraperitoneal administration of dexamethasone, oxiracetam was orally administered using a Zonde needle at a dose of 30 mg/kg/day once a day for 21 days. During the same period, the normal group was administered no drug, and 100 μL of normal saline was orally administered at a time.
The lean body mass for the gastrocnemius muscle (GS) and tibialis anterior (TA) for each group was measured every 7 days. Specifically, animal models of each group were anesthetized using 3% isoflurane, fixed to a photographing bed, and then photographed. The respiration rates and temperatures of the animal models during photographing were measured using an animal monitoring system (SA Instruments, USA).
The whole body of the animal model was photographed through dual energy X-ray absorptiometry (DEXA) using iNSiGHT VET DXA (Osteosys, KR), and the lean body mass of each of the gastrocnemius muscle (GS) and the tibialis anterior (TA) was measured and calculated from the two-dimensional images of the gastrocnemius muscle (GS) and the tibialis anterior (TA) by a program using the region of interest (ROI).
To measure grip strength, a grip strength test was performed. […] The grip strength was measured once every 2 days and 11 times for each mouse.
Tibialis anterior diameters (T1) were measured from two-dimensional images captured by dual-energy X-ray absorptiometry (DEXA) for each group and compared.
First, the experimental animals in each group were acclimatized to a treadmill machine twice before measurement (1st round: inclination 10°, 10 minutes at 5 m/min and 10 minutes at 10 m/min; 2n d round: inclination 10°, 5 minutes at 5 m/min and 15 minutes at 10 m/min). On the day of the experiment, the experimental animals were allowed to run for 20 minutes at an initial speed of 10 m/min at an inclination of 10°, and then the speed was increased by 2 m/min every 2 minutes, and then the running distance and time were measured with the end point when the experimental animal stayed for 10 seconds without running.
(§1) Statistical processing was performed using GraphPad Prism (GraphPad Software Inc., San Diego, CA, USA). The results of each repeated experiment were expressed as mean±standard error of mean, and analyzed using the analysis of variance (Tukey's test), and statistical significance was acknowledged when the P-value was 0.05 or less.

For assay [2], the system named is C2C12 myotubes. Briefly: Myotube diameter in doxorubicin-induced cachexia cell model (Experimental Example 8). It counts as cell-based, mouse. As to conditions: doxorubicin 500 nM 48 h with or without oxiracetam 0.01, 0.1, 1, 10 and 30 μM; relative to control. How it is done: A mouse-derived C2C12 cell line was provided from the American Type Culture Collection (ATCC, CRL-1772; Manassas, VA, USA) and cultured at 37° C. in 5% CO2. In the proliferation phase of the cells before differentiation, high concentration glucose Dulbecco's modified Eagle's medium (DMEM) containing 1% penicillin/streptomycin and 10% fetal bovine serum (FBS) medium were used, and in the differentiation induction, the FBS medium was replaced with a 2% horse serum (HS)-containing medium. The C2C12 myoblasts were seeded into a 96 well culture plate and a 6 well culture plate at 2×10^5/well and 5×10^3/well, respectively, and cultured at 37° C. in a CO2 incubator. […]
Two days after anticancer agent and oxiracetam treatment, the anticancer agent-treated group (Doxorubicin), the oxiracetam-treated groups (Oxiracetam 0.01 μM, 0.1 μM, 1 μM, 10 μM and 30 μM), and the control (control) were photographed using an optical microscope at a room temperature, and the diameter (Diameter, %) of a myotube in each group was measured and compared.
as §1

The mark [3] stands for this setting: oxiracetam 30 mg/kg/day oral 21 days + dexamethasone, DEXA.

With `NC(=O)CN1CC(O)CC1=O` (racemic) [oxiracetam, (RS)-2-(4-hydroxy-2-oxopyrrolidin-1-yl)acetamide], in assay [1] (oxiracetam 30 mg/kg/day oral 21 days + dexamethasone 10 mg/kg i.p. day 7-21, DEXA), the “tibialis anterior (TA) diameter (T1)” value was “significantly increased”. Also, in assay [1] (setting [3]), the “lean body mass of the gastrocnemius muscle (GS)” value is “the decrease was significantly suppressed” and the “lean body mass of the tibialis anterior (TA)” value is recorded as “the decrease was significantly suppressed”. Besides, in assay [1] (oxiracetam 30 mg/kg/day oral 21 days + dexamethasone), the grip strength result was “significantly increased”. Further, in assay [1] (oxiracetam 30 mg/kg/day oral + dexamethasone), the “exercise stress test (treadmill): athletic ability” value is listed as “significant improvement”. Further, the diameter of myotube entry in assay [2] was “significantly recovered and greatly increased to the control (normal group) level”.

The record behind these values is US20240050406A1, “COMPOSITION COMPRISING OXIRACETAM FOR PREVENTING OR TREATING MUSCULAR DISEASE” (KSB TUGEN INC., priority 2021, published 2024).
